Values quoted from earlier work, collected in article PMC13109691 (Environmental and Molecular Mutagenesis, 2026).

Conditions: source not stated

Lipophilicity (logP): 3.79
Compound: COc1ccc(C(=O)c2ccccc2)c(O)c1 [Oxybenzone]
